Reference: patent US20170008928A1, “NOVEL PEPTIDES AND PEPTIDE DERIVATIVES AND USES THEREOF” (Novo Nordisk A/S, priority 2015, published 2017)
Read-outs that look alike come from different tables or passages of the source. Starred links: 1 amine or outer side, 2 acyl side, 3 side chain; linkers in the order of their positions; H or OH if unused. Non-standard residues stand in square brackets, D forms with d. Residues, ends and D or L forms follow the SMILES beside them. *: point of attachment. Phe(4-CH2SO3H) = N[C@@H](Cc1ccc(CS(=O)(=O)O)cc1)C(=O)O; sY = N[C@@H](Cc1ccc(OS(=O)(=O)O)cc1)C(=O)O; C18 diacid = O=C(O)CCCCCCCCCCCCCCCCC(=O)*; γGlu = O=C(O)[C@H](CCC(=O)[*:2])N[*:1]; NMeF = CN[C@@H](Cc1ccccc1)C(=O)O; dNMeD = CN[C@H](CC(=O)O)C(=O)O; Nle = CCCC[C@H](N)C(=O)O; AEEA = NCCOCCOCC(=O)O

Key:
[1] = target: T1, human cholecystokinin-2 receptor (CCK-2R) (Homo sapiens, UniProt P32239); experiment: In vitro potency on CCK-2R, whole cell functional assay (IP1 accumulation, IP-One HTRF); type: cell-based
T1 construct: host or cells: 1321-N1 cells (plasma membranes prepared by Evotec AG Hamburg)
T1 sequence (P32239 1-447): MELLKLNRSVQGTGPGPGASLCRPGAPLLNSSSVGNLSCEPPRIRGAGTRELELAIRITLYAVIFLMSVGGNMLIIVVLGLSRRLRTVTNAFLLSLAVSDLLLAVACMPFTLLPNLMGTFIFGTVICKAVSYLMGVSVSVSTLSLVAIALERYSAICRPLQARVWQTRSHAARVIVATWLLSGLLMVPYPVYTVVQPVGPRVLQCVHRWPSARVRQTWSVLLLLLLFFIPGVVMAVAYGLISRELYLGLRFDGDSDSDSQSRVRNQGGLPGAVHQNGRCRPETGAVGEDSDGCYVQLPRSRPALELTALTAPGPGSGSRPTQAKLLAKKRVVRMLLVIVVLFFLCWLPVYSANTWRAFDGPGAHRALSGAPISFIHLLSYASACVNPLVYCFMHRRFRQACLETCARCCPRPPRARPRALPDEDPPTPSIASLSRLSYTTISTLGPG

[2] = target: T1, human cholecystokinin-2 receptor (CCK-2R); experiment: In vitro receptor binding to CCK-2R, SPA displacement of [125I]-CCK-8s from plasma membranes
Procedure: The in vitro binding affinity is a measure of the strength of attraction between a receptor and its ligand.
Displacement of radio ligand was measured as reduction in light emission from SPA beads.
The cells used in these assays were 1321-N1 cells stably expressing the CCK-1R or the CCK-2R (Perkin Elmer product numbers ES-530-A and ES-531-A, respectively see www.perkinelmer.com/Catalog/Product/ID/ES-530-A or -ES-531-A, respectively).
The cells were cultured in an incubator (95% RH (relative humidity), 5% (of standard atmospheric pressure) CO2, 37° C.) in cell culture medium (DMEM (Lonza catalogue BE-12-604F/U1), with 10% (v/v) Foetal Calf Serum (FCS, Gibco catalogue 16140-071), 1% (w/w) Sodium pyruvate (Gibco catalogue 11360-039), 500 μg/ml Geneticin® (G418) (Gibco catalogue 10131-027), 25 μg/ml Zeocin™ (Invitrogen catalogue R250-05), 1% (w/w) Pen/Strep (Gibco catalogue 15140-122)).
Plasma membranes were prepared by Evotec AG Hamburg by use of the ParrBomb (#4635, Parr Instrument Company). Cells were lysed with a lysis buffer (50 mM Tris, 2.5 mM EDTA, pH7) with added protease inhibitors (Complete Proteaseinhibitors EDTA-free (#05056489001, Roche), 1 tablet per 50 mL lysis buffer). The membrane fraction was separated by centrifugation. First, the cell lysate was centrifuged at 1000×g for 10 minutes at 4° C. The pellet was discarded and the supernatant was then centrifuged at 100.000×g for 30 minutes at 4° C. The supernatant was discarded and the pellet was re-suspended in 1 ml/5×10^8 cells ice cold membrane buffer (50 mM Tris, 320 mM Sucrose and Complete Proteaseinhibitors EDTA-free (#05056489001, Roche); pH7.4) and homogenised with dounce homogeniser. The protein concentration was determined using the Pierce™ BCA Protein Assay Kit according to kit manual, and the membrane preparation was adjust to the desired protein concentration with membrane buffer and aliquoted into pre-cooled tubes, snap-frozen in liquid nitrogen, and stored at −80° C.
CCK receptor binding assays were performed in 96-well Optiplates (Cat #6005290, PerkinElmer, Waltham, Mass., USA) in a total volume of 200 μl per well. CCK derivatives in 80% DMSO stock solutions of 800 μM were serially diluted […] in assay buffer (50 mM Tris/HCl, 4.5 mM MgCl2, […], 0.02% Tween 20, 0.25% ovalbumin, 0.1% pluronic F-68, pH 7.4) to final assay concentrations ranging from 10^−5 M (ten μM) to 10^−12 M (one pM).
Fifty μl of reference or test compounds were added to the Optiplates (using technical duplicates, i.e. two wells of each sample, one data point being the average of two wells), followed by addition of 150 μl of the mixture of SPA bead, radio ligand, and plasma membrane. The plates were sealed and incubated in the dark at +22° C. for 2 hours on a IKA MTS plate shaker (IKA-Werke D-79219 Staufen) set at 300 rpm and thereafter centrifuged at 1500 rpm for 10 minutes in a Heraeus Multifuge 3s centrifuge. SPA bead light emission was measured in a TopCount NXT (PerkinElmer) for 2 min/well after a delay of 60 min.
As a measure of compound affinity, calculations were performed in order to determine the half maximal inhibitory concentration (the IC50 value).
The data from the TopCounter were given as counts per minute (CPM). The CPM was plotted as a function of the concentration of compound. Dose-response curves were obtained, and IC50 values were calculated, by a nonlinear three-parameter logistic equation (log(agonist) vs response) with hillslope=−1, and shared top and bottom using the software programme GraphPad Prism v 6.0 (Graph Pad software, La Jolla, Calif., USA). The highest dose tested was 10^−5 M (1×10^7 pM).
The preference of a specific compound for the CCK-1 receptor, or the CCK-1R selectivity, may be defined as IC50 (CCK-2R)/IC50 (CCK-1R).
A minimum of three biological replicates was measured for each test compound on separate assay plates.

[3] = 1321-N1 cells stably expressing CCK-2R, IP1 accumulation, highest dose tested 1×10^6 pM, read-out: EC50 (CCK-2R)
[4] = displacement of [125I]-CCK-8s, plasma membranes of 1321-N1 cells expressing CCK-2R, highest dose tested 1×10^7 pM, read-out: IC50 (CCK-2R)

Compound: CCCC[C@H](NC(=O)[C@H](Cc1c[nH]c2ccccc12)NC(=O)CNC(=O)[C@H](CC(C)C)NC(=O)[C@H](Cc1ccc(CS(=O)(=O)O)cc1)NC(=O)[C@@H](N)CC(=O)O)C(=O)N(C)[C@H](CC(=O)O)C(=O)N(C)[C@@H](Cc1ccccc1)C(N)=O [Example 57, Asp-Phe(4-sulfomethyl)-Leu-Gly-Trp-Nle-DMeAsp-MePhe-amide] (H-D[Phe(4-CH2SO3H)]LGW[Nle][dNMeD][NMeF]-NH2)
- EC50 [1, 3]: > 1000 nM
- IC50 [2, 4]: > 10 µM

Compound: CCCC[C@H](NC(=O)[C@H](Cc1c[nH]c2ccccc12)NC(=O)CNC(=O)[C@H](CC(C)C)NC(=O)[C@H](Cc1ccc(OS(=O)(=O)O)cc1)NC(=O)[C@H](CC(=O)O)NC(=O)COCCOCCNC(=O)COCCOCCNC(=O)COCCOCCNC(=O)COCCOCCNC(=O)CC[C@H](NC(=O)CCCCCCCCCCCCCCCCC(=O)O)C(=O)O)C(=O)N(C)[C@H](CC(=O)O)C(=O)N(C)[C@@H](Cc1ccccc1)C(N)=O [Example 31, 2-[2-[2-[[2-[2-[2-[[2-[2-[2-[[2-[2-[2-[[(4S)-4-Carboxy-4-(17-carboxyheptadecanoylamino)butanoyl]amino]ethoxy]ethoxy]acetyl]amino]ethoxy]ethoxy]acetyl]amino]ethoxy]ethoxy]acetyl]amino]ethoxy]ethoxy]acetyl-Asp-sTyr-Leu-Gly-Trp-Nle-DMeAsp-MePhe-amide]
- EC50 [1, 3]: 110 nM
- IC50 [2, 4]: 0.48 µM

Compound: CCCC[C@H](NC(=O)[C@H](Cc1c[nH]c2ccccc12)NC(=O)CNC(=O)[C@H](CC(C)C)NC(=O)[C@H](Cc1ccc(OS(=O)(=O)O)cc1)NC(=O)[C@H](CC(=O)O)NC(=O)CC[C@H](NC(=O)COCCOCCNC(=O)COCCOCCNC(=O)CC[C@H](NC(=O)CCCCCCCCCCCCCCCCC(=O)O)C(=O)O)C(=O)O)C(=O)N(C)[C@H](CC(=O)O)C(=O)N(C)[C@@H](Cc1ccccc1)C(N)=O [Example 32, (4S)-4-Carboxy-4-[[2-[2-[2-[[2-[2-[2-[[(4S)-4-carboxy-4-(17-carboxyheptadecanoylamino)butanoyl]amino]ethoxy]ethoxy]acetyl]amino]ethoxy]ethoxy]acetyl]amino]butanoyl-Asp-sTyr-Leu-Gly-Trp-Nle-DMeAsp-MePhe-amide]
- EC50 [1, 3]: 46 nM
- IC50 [2, 4]: 0.38 µM

Compound: CCCC[C@H](NC(=O)[C@@H](N)Cc1ccc(OS(=O)(=O)O)cc1)C(=O)NCC(=O)N[C@@H](Cc1c[nH]c2ccccc12)C(=O)N[C@@H](CCCC)C(=O)N(C)[C@H](CC(=O)O)C(=O)N(C)[C@@H](Cc1ccccc1)C(N)=O [Example 72, sTyr-Nle-Gly-Trp-Nle-DMeAsp-MePhe-amide] (H-[sY][Nle]GW[Nle][dNMeD][NMeF]-NH2; N-terminus assumed)
- EC50 [1, 3]: > 1000 nM
- IC50 [2, 4]: > 10 µM

Compound: CC(C)C[C@H](NC(=O)[C@H](Cc1ccc(OS(=O)(=O)O)cc1)NC(=O)[C@H](CC(=O)O)NC(=O)COCCOCCNC(=O)COCCOCCNC(=O)CC[C@H](NC(=O)CCCCCCCCCCCCCCCCC(=O)O)C(=O)O)C(=O)NCC(=O)N[C@@H](Cc1c[nH]c2ccccc12)C(=O)N1CCC[C@H]1C(=O)N(C)[C@H](CC(=O)O)C(=O)N(C)[C@@H](Cc1ccccc1)C(N)=O [Example 15, 2-[2-[2-[[2-[2-[2-[[(4S)-4-Carboxy-4-(17-carboxyheptadecanoylamino)butanoyl]amino]ethoxy]ethoxy]acetyl]amino]ethoxy]ethoxy]acetyl-Asp-sTyr-Leu-Gly-Trp-Pro-DMeAsp-MePhe-amide] ({C18 diacid-γGlu-AEEA-AEEA}-D[sY]LGWP[dNMeD][NMeF]-NH2)
- EC50 [1]: 150 nM
- IC50 [2]: 1 µM

Compound: CC[C@H](C)[C@H](NC(=O)[C@H](Cc1c[nH]c2ccccc12)NC(=O)CNC(=O)[C@H](CC(C)C)NC(=O)[C@H](Cc1ccc(OS(=O)(=O)O)cc1)NC(=O)[C@@H](N)CC(=O)O)C(=O)N(C)[C@H](CC(=O)O)C(=O)N(C)[C@@H](Cc1ccccc1)C(N)=O [Example 61, Asp-sTyr-Leu-Gly-Trp-Ile-DMeAsp-MePhe-amide] (H-D[sY]LGWI[dNMeD][NMeF]-NH2)
- EC50 [1]: > 1000 nM
- IC50 [2]: 6.1 µM

Compound: CCCC[C@H](NC(=O)[C@H](Cc1c[nH]c2ccccc12)NC(=O)CNC(=O)[C@H](CCCCN)NC(=O)[C@H](Cc1ccc(OS(=O)(=O)O)cc1)NC(=O)[C@@H](N)CC(=O)O)C(=O)N(C)[C@H](CC(=O)O)C(=O)N(C)[C@@H](Cc1ccccc1)C(N)=O [Example 67, Asp-sTyr-Lys-Gly-Trp-Nle-DMeAsp-MePhe-amide] (H-D[sY]KGW[Nle][dNMeD][NMeF]-NH2)
- EC50 [1, 3]: > 1000 nM
- IC50 [2, 4]: > 10 µM

Compound: CCCC[C@H](NC(=O)[C@H](Cc1c[nH]c2ccccc12)NC(=O)CNC(=O)[C@H](CC(C)C)NC(=O)[C@H](Cc1ccc(OS(=O)(=O)O)cc1)NC(=O)[C@H](N)CCC(=O)O)C(=O)N(C)[C@H](CC(=O)O)C(=O)N(C)[C@@H](Cc1ccccc1)C(N)=O [Example 87, DGlu-sTyr-Leu-Gly-Trp-Nle-DMeAsp-MePhe-amide] (H-[dE][sY]LGW[Nle][dNMeD][NMeF]-NH2)
- EC50 [1, 3]: > 1000 nM
- IC50 [2, 4]: > 10 µM

Compound: CC(C)C[C@H](NC(=O)[C@H](Cc1ccc(OS(=O)(=O)O)cc1)NC(=O)[C@@H](N)CCC(=O)O)C(=O)NCC(=O)N[C@@H](Cc1c[nH]c2ccccc12)C(=O)N[C@@H](CCC(N)=O)C(=O)N(C)[C@H](CC(=O)O)C(=O)N[C@@H](Cc1ccccc1)C(N)=O [Example 85, Glu-sTyr-Leu-Gly-Trp-Gln-DMeAsp-Phe-amide]
- EC50 [1, 3]: > 1000 nM
- IC50 [2, 4]: > 10 µM

Compound: CCCC[C@H](NC(=O)[C@H](Cc1c[nH]c2ccccc12)NC(=O)CNC(=O)[C@H](Cc1c[nH]cn1)NC(=O)[C@H](Cc1ccc(OS(=O)(=O)O)cc1)NC(=O)[C@@H](N)CC(=O)O)C(=O)N(C)[C@H](CC(=O)O)C(=O)N(C)[C@@H](Cc1ccccc1)C(N)=O [Example 82, Asp-sTyr-His-Gly-Trp-Nle-DMeAsp-MePhe-amide] (H-D[sY]HGW[Nle][dNMeD][NMeF]-NH2)
- EC50 [1, 3]: > 1000 nM
- IC50 [2, 4]: > 10 µM
